Source: patent publication US20070117861A1, “Treatment or prevention of cardiovascular and respiratory disorders with novel substituted cyclic-amp specific phosphodiesterase inhibitors” (University of South Carolina, priority 2003, published 2007)

Experiments:
[1] = tested on: guinea pig ventricular myocytes; experiment: action potentials, nystatin-perforated whole-cell patch-clamp, ventricular myocytes; type: cell-based
Method: (§1) The effects of a novel synthesized cAMP specific phosphodiesterase inhibitor MS23 on action potential parameters were examined and compared with those of milrinone and rolipram in isolated guinea-pig myocytes. Action potentials (AP) were recorded under nystatin-perforated whole-cell patch-clamp mode at a temperature of 35±0.5° C. […] In comparison, rolipram (30 μM) shortened APD90 from 318.3±8.9 to 274.6±9.8 msec (P<0.05, n=3) in ventricular cells. […] In contrast, milrinone (10 μM) elongated ventricular APD90 from 287.9±10.3 msec to 327.8±17.4 msec (P<0.05, n=4) and produced a significant delay of phase 1 and plateau phase, but acceleration of phase 3 repolarization (APD90 shortened from 153.9±12.1 to 135.5±12.3 msec, P<0.05, n=4) in atrial cells.
(§2) Single myocytes were isolated by enzymatic digestion of guinea pig hearts. The animal was anesthetized by I.P. injection of pentobarbital sodium (50 mg/kg) and the heart was excised and retrogradely perfused with oxygenated Tyrode solution containing (in […]): 140 NaCl, 5.4 KCl, 1.5 MgCl2, 1.8 CaCl2, 0.33 NaH2PO4, 5.5 Glucose, 19 Hepes (pH 7.4 with NaOH at 36.5° C.). The enzymatic digestion was carried out with Ca^2+-free Tyrode solution by adding 0.4 mg/ml of collagenase type II (306 units/mg) and 1.6 mg/ml Bovine Serum Albumin V.
(§3) Transmembrane potentials were recorded under nystatin-perforted whole-cell current-clamp mode at 36.5° C. when the cells were bathed in Tyrode solution. The finished pipette had resistance of 4-7 MΩ when filled with a perforate solution containing (in mM): 140 KCl, 2 MCl2, 0.5 CaCl2, 10 Glucose, 10 Hepes (pH 7.2 with KOH), and 8.64 nM nystatin. The correction of junction potential was carried out off-line. The data acquisition was performed with an Axonpatch-200B amplifier/Digidata 1322A/Clampex 8.2 system (Axon Instrument, Inc., USA). Action potential was evoked by consecutive 10 msec rectangular current pulses at an interval of 2 seconds. APD was measured at 90% of repolarization (APD^90). The cell was held at a −40 mV membrane potential to inactivate the sodium channels. L-type calcium current was elicited by a step pulse from −40 mV to 0 mV with a duration of 300 msec.

[2] = onset of therapeutic effect after administration; type: in vivo
[3] = tested on: guinea pig atrial myocytes; experiment: action potentials, nystatin-perforated whole-cell patch-clamp, atrial myocytes; type: cell-based
Method: as §1, §2, §3

solubility = type: physicochemical
[4] = blood pressure in anesthetized dogs after intravenous bolus injection; type: in vivo; details: for Left Ventricular End Diastolic Pressure: control 8.7; for Blood Pressure Min: control 46.6; for Blood Pressure Mean: control 67.2; for Left Ventricular Systolic Pressure: control 78.5; for Blood Pressure Max: control 99.8; for Heart Rate: control 119.8, in bpm (unit assumed)
Method: This example illustrates the effect that MS23 has on blood pressure reduction through an in vivo experiment in dogs. An intravenous bolus injection of MS23 was administered to anesthetized dogs at a dose of 0.25 mg/kg.bw. […] Higher doses of MS23 produced a greater decrease in blood pressure without affecting heart rate and left ventricular end diastolic pressure.

[5] = blood pressure and heart rate in anesthetized rats after oral gavage; type: in vivo; details: anesthetized female rat; for Mean Blood Pressure: saline control 186; for Heart Rate: saline control 364
Method: This example illustrates the effect that MS23 has on blood pressure reduction through an in vivo experiment. Specifically, this example illustrates the effect of an intravenous bolus injection of MS23 on blood pressure. Female Sprague-Dawley rats weighing 200-225 g were anesthetized with pentobarbital (30 mg/kg body weight (bw), i.p.). The animals were positioned supinely on a heat plate that was controlled by an automatic temperature controller system (TC-324B, Warner Instrument Corp.) to maintain its body temperature constant (36° ±0.5° C.) during the experiment. The trachea, right carotid artery, and left femoral vein were exposed. The trachea was cannulated and the animal was breathed with air through a respirator at a rate of 65-70/min and an inspiration pressure of approximately 10 cm H2O. PE catheters were implanted into the carotid artery and femoral vein, respectively. The animal was heparinized by i.v. injection of approximately 300 units of heparin dissolved in 0.3 ml of 0.9% saline. Arterial pressure was recorded from the carotid artery catheter connected to a physiological pressure transducer (SP 844, Capto Company, Norway) that was coupled to a bridge amplifier (PowerLab, ADInstruments). The data was digitized through a 16 SP interface and acquire on-line with Chart 4.0 software (PowerLab, ADInstruments) and stored to a personal computer.
MS23 was administered to two female rats via oral gavage at a dose of 26 and 80 mg/kg.bw, respectively. The agent was dissolved in 0.9% saline in a volume of 0.5 ml. The same volume of saline alone was administered to two control animals. After 15 minutes, the animal was anesthetized with pentobarbital (30 mg/kg.bw, i.p.) and same surgery was performed except that the femoral vein was not exposed and there was no i.v. administration of the test agent. The carotid blood pressure and heart rate were monitored and recorded for 60 minutes using the same method described above. The initial recording was made within 45 to 65 minutes after performing oral gavage. The results are reported in the following Table 1 (the MBP and HR were measured within 30 minutes after the surgery).

PDE-4 = tested on: T1, PDE-4; details: reported in Hatzelmann et al. 2001; read-out: IC50 for roflumilast activity on PDE-4; cited from earlier work
T1 construct: other: reported in Hatzelmann et al. 2001

PDE5 = PDE5 (Homo sapiens, UniProt O76074); details: ratio of cited IC50 values
Method: PDE inhibition is then determined by the presence or absence of substrate degradation products. […] The relative ability of an inhibitory compound to slow or prevent the degradation of tritiated cyclic nucleotides is one test that is indicative of how well the compound in question selects one or more of each isoform to inhibit.

PDE1 = details: reported in Hatzelmann et al. 2001; read-out: IC50 for roflumilast activity on PDE1; cited from earlier work
[6] = tested on: high K+ contracted porcine kidney main artery; experiment: tension assay, high K+ contracted porcine kidney vessel rings; details: tension assay trace, FIG. 5
Method: The trachea, main bronchi and vessel rings (2-3 mm in width) of Sprague-Dawley rats, Harley Guinea Pigs and porchine were used to carry out the tension assay. The tissue rings were bathed in 3.5 ml or 30 ml tissue chamber and aired with 95% O2/5% CO2 at 37° C. The tension was measured using a tension transducer linked to a PowerLab system (ADInstruments, USA). The basal tension was set to 0.7-1.0 g step by step with a 0.1-0.2 g increment. After the base tension reached steady-state in control K-H solution, the rings were contracted for 5-10 minutes by a 70 mM high K^+ K-H solution and relaxed by switching back to normal K-H solution. The alternation between 70 mM K^+ K-H and normal K-H was repeated two more times to equilibrate the tissue before the experiment.

CCCN(CC)C(C)C(=O)Nc1[nH]c(CCSC)c(C)c1C(N)=O (stereo not shown) [MS23]
prolongation of ventricular APD ([1]; from 1 to 100 μM): did not prolong
APD90 (action potential duration at 90% of repolarization) ([1]; ventricular cells, 30 μM, before drug 304.9±24.0 msec, P<0.05, n=8): 254.9 ± 28.4 ms
onset of therapeutic effect (response occurs) ([2]; after intraperitoneal administration): < 3 min
onset of therapeutic effect (response occurs) ([2]; after oral gavage): ≤ 30 min
effect on APD ([3]; atrial cells, 30 μM): no effect
prolongation of atrial APD ([3]; from 1 to 100 μM): did not prolong
solubility in physiological saline (solubility): soluble
Left Ventricular End Diastolic Pressure ([4]; Bolus 1 mg/kg·bw): 9.0
Blood Pressure Min ([4]; Bolus 1 mg/kg·bw): 39.8
Blood Pressure Mean ([4]; Bolus 1 mg/kg·bw): 58.4
Left Ventricular Systolic Pressure ([4]; Bolus 1 mg/kg·bw): 71.8
Blood Pressure Max ([4]; Bolus 1 mg/kg·bw): 90.5 mmHg
Heart Rate ([4]; Bolus 1 mg/kg·bw): 118.2
Left Ventricular End Diastolic Pressure ([4]; Bolus 2 mg/kg·bw): 9.2
Blood Pressure Min ([4]; Bolus 2 mg/kg·bw): 33.7
Blood Pressure Mean ([4]; Bolus 2 mg/kg·bw): 48.0
Left Ventricular Systolic Pressure ([4]; Bolus 2 mg/kg·bw): 63.1
Blood Pressure Max ([4]; Bolus 2 mg/kg·bw): 76.8 mmHg
Heart Rate ([4]; Bolus 2 mg/kg·bw): 109.7
reduction in blood pressure ([4]; intravenous bolus 0.25 mg/kg.bw): 4 mmHg
Mean Blood Pressure ([5]; oral gavage 26 mg/kg·bw): 156 mm Hg
Heart Rate ([5]; oral gavage 26 mg/kg·bw): 384 beat/min
Mean Blood Pressure ([5]; oral gavage 80 mg/kg·bw): 126 mm Hg
Heart Rate ([5]; oral gavage 80 mg/kg·bw): 300 beat/min

O=C(Nc1c(Cl)cncc1Cl)c1ccc(OC(F)F)c(OCC2CC2)c1 [roflumilast]
IC50 (PDE-4): 0.8 nM
selectivity for PDE-4 as compared with PDE5 (PDE5 IC50/PDE-4 IC50) (PDE5): at least 10,000
IC50 (PDE1): > 10000 nM

NC[C@H](O)c1ccc(O)c(O)c1 [Norepinephrine]
effect on tension of high K+ contracted porcine kidney main artery [6]: contracted

Cc1[nH]c(=O)c(C#N)cc1-c1ccncc1 [milrinone]
effect on APD90 ([1]; ventricular cells, 10 μM, after treatment with either rolipram or MS23): markedly shortened
APD90 ([1]; ventricular cells, 10 μM, before drug 287.9±10.3 msec, P<0.05, n=4): 327.8 ± 17.4 ms
APD90 ([3]; atrial cells, 10 μM, before drug 153.9±12.1 msec, P<0.05, n=4): 135.5 ± 12.3 ms

COc1ccc(C2CNC(=O)C2)cc1OC1CCCC1 (stereo not shown) [rolipram, reference compound]
APD90 ([1]; ventricular cells, 30 μM, before drug 318.3±8.9 msec, P<0.05, n=3): 274.6 ± 9.8 ms
effect on action potential phases ([3]; atrial cells, 30 μM): small delay of phase 1 and plateau phase, but acceleration of phase 3 repolarization

CCN(CC)CC(=O)Nc1c(C)cccc1C [Lidocaine]
effect on tension of high K+ contracted porcine kidney main artery [6]: did not relax
